Tests used:
VEEV TC83 = test: microbe, parasite or virus in culture; format: cell-based; conditions: Venezuelan equine encephalitis virus, Vero 76, 48 h, read-out: VEEV TC83 EC50 nM
WEEV California = test: microbe, parasite or virus in culture; format: cell-based; conditions: Western equine encephalitis virus, Vero 76, 48 h, read-out: WEEV California EC50 nM

SMILES | EC50 (VEEV TC83) [nM] | EC50 (WEEV California) [nM]
COc1ccc(-n2c(C3CCCN3)nc3c(-c4ccc(S(C)(=O)=O)cc4)cc(C#N)cc3c2=O)cc1F (centres unmarked) [Example 136, 3-(3-fluoro-4-methoxyphenyl)-8-(4-(methylsulfonyl)phenyl)-4-oxo-2-(pyrrolidin-2-yl)-3,4-dihydroquinazoline-6-carbonitrile] | 1 to 50 | 1 to 50
Cc1ccc(-c2cc(C#N)cc3c(=O)n(-c4ccc(N5CCOCC5)c(F)c4)c(C4CCCN4)nc23)cn1 (centres unmarked) [Example 146, 3-(3-Fluoro-4-morpholinophenyl)-8-(6-methylpyridin-3-yl)-4-oxo-2-(pyrrolidin-2-yl)-3,4-dihydroquinazoline-6-carbonitrile] | 151 to 500 | 501 to 1000
COc1c(F)cc(-n2c(C3C[C@H](F)CN3)nc3c(-c4ccnc(C)c4)cc(C#N)cc3c2=O)cc1F (stereo partly drawn) [Example 156, 3-(3,5-Difluoro-4-methoxyphenyl)-2-((4S)-4-fluoropyrrolidin-2-yl)-8-(2-methylpyridin-4-yl)-4-oxo-3,4-dihydroquinazoline-6-carbonitrile] | 1 to 50 | 151 to 500
COc1ccc(-n2c([C@H]3CCCN3)nc3c(-c4ccc(C)nc4)cc([N+](=O)[O-])cc3c2=O)cc1F [Example 92, (R)-3-(3-fluoro-4-methoxyphenyl)-8-(6-methylpyridin-3-yl)-6-nitro-2-(pyrrolidin-2-yl) quinazolin-4 (3H)-one] | 1 to 50 | 1 to 50
COc1ccc(-n2c([C@H]3CCCN3)nc3cccc([N+](=O)[O-])c3c2=O)cc1 [Example 49, (R)-3-(4-methoxyphenyl)-5-nitro-2-(pyrrolidin-2-yl)quinazolin-4 (3H)-one] | > 1000 | > 1000
COc1ccc(-n2c(C3CCCN3)nc3c(-c4ccc(OC)c(OC)c4)cc(C#N)cc3c2=O)cc1F (centres unmarked) [Example 152, 8-(3,4-Dimethoxyphenyl)-3-(3-fluoro-4-methoxyphenyl)-4-oxo-2-(pyrrolidin-2-yl)-3,4-dihydroquinazoline-6-carbonitrile] | 1 to 50 | 1 to 50
COc1ccc(-n2c([C@@H]3CCCN3)nc3ccc(C#N)cc3c2=O)cc1 [Example 15, (S)-3-(4-methoxyphenyl)-4-oxo-2-(pyrrolidin-2-yl)-3,4-dihydroquinazoline-6-carbonitrile] | 51 to 150 | 501 to 1000
COc1c(F)cc(-n2c(C34CC(CN3)C4)nc3c(-c4cnc(C)c(C)c4)cc(C#N)cc3c2=O)cc1F [Example 176, 2-(2-azabicyclo[2.1.1]hexan-1-yl)-3-(3,5-difluoro-4-methoxyphenyl)-8-(5,6-dimethylpyridin-3-yl)-4-oxo-3,4-dihydroquinazoline-6-carbonitrile] | 1 to 50 | 1 to 50
COc1ccc(-n2c([C@H]3CCCN3C3COC3)nc3ccc([N+](=O)[O-])cc3c2=O)cc1 [Example 11, (R)-3-(4-methoxyphenyl)-6-nitro-2-(1-(oxetan-3-yl)pyrrolidin-2-yl) quinazolin-4 (3H)-one] | 51 to 150 | 501 to 1000
COc1ccc(-n2c(-c3cocn3)nc3c(-c4ccc(C)nc4)cc(C#N)cc3c2=O)cc1F [Example 197, 3-(3-fluoro-4-methoxyphenyl)-8-(6-methylpyridin-3-yl)-2-(oxazol-4-yl)-4-oxo-3,4-dihydroquinazoline-6-carbonitrile] | 501 to 1000 | > 1000
COc1ccc(-n2c([C@H]3CCCN3)nc3c([N+](=O)[O-])cccc3c2=O)cc1 [Example 47, (R)-3-(4-methoxyphenyl)-8-nitro-2-(pyrrolidin-2-yl)quinazolin-4 (3H)-one] | > 1000 | > 1000
COc1ccc(-n2c([C@H]3CCC(=O)N3)nc3c(-c4ccc(C)nc4)cc(C#N)cc3c2=O)cc1F [Example 121, (R)-3-(3-fluoro-4-methoxyphenyl)-8-(6-methylpyridin-3-yl)-4-oxo-2-(5-oxopyrrolidin-2-yl)-3,4-dihydroquinazoline-6-carbonitrile] | > 1000 | > 1000
COc1ccc(-n2c(C3CCCN3)nc3c(-c4cnc(OC)c(OC)c4)cc(C#N)cc3c2=O)cc1F (centres unmarked) [Example 135, 8-(5,6-dimethoxypyridin-3-yl)-3-(3-fluoro-4-methoxyphenyl)-4-oxo-2-(pyrrolidin-2-yl)-3,4-dihydroquinazoline-6-carbonitrile] | 1 to 50 | 1 to 50
O=c1c2cc([N+](=O)[O-])ccc2nc(C2CCCN2)n1-c1ccccc1F (centres unmarked) [Example 41, 3-(2-fluorophenyl)-6-nitro-2-(pyrrolidin-2-yl)quinazolin-4 (3H)-one] | 501 to 1000 | > 1000
COc1ccc(-n2c(-c3nccn3C)nc3c(-c4ccc(C)nc4)cc(C#N)cc3c2=O)cc1F [Example 203, 3-(3-fluoro-4-methoxyphenyl)-2-(1-methyl-1H-imidazol-2-yl)-8-(6-methylpyridin-3-yl)-4-oxo-3,4-dihydroquinazoline-6-carbonitrile] | 51 to 150 | 151 to 500
COc1ccc(-n2c(C3CCCN3)nc3c(-c4ccc(O)nc4)cc(C#N)cc3c2=O)cc1F (centres unmarked) [Example 131, 3-(3-fluoro-4-methoxyphenyl)-8-(6-hydroxypyridin-3-yl)-4-oxo-2-(pyrrolidin-2-yl)-3,4-dihydroquinazoline-6-carbonitrile] | 1 to 50 | 1 to 50

SMILES | EC50 (VEEV TC83) [nM] | EC50 (WEEV California) [nM]
O=c1c2cc([N+](=O)[O-])ccc2nc([C@@H]2CCCN2C2CCOCC2)n1-c1ccccc1 [Example 6, (S)-6-nitro-3-phenyl-2-(1-(tetrahydro-2H-pyran-4-yl)pyrrolidin-2-yl)quinazolin-4 (3H)-one] | 501 to 1000 | > 1000
COc1ccc(-n2c([C@@H]3CCCN3)nc3ccc(F)c(F)c3c2=O)cc1 [Example 30, (S)-5,6-difluoro-3-(4-methoxyphenyl)-2-(pyrrolidin-2-yl) quinazolin-4 (3H)-one] | > 1000 | > 1000
COc1ccc(-n2c([C@@H]3CCCN3)nc3c(-c4cccnc4)cc([N+](=O)[O-])cc3c2=O)cc1F [Example 83, (S)-3-(3-fluoro-4-methoxyphenyl)-6-nitro-8-(pyridin-3-yl)-2-(pyrrolidin-2-yl) quinazolin-4 (3H)-one] | 1 to 50 | 1 to 50
COc1c(F)cc(-n2c(C3CCCNC3)nc3c(-c4ccc(C)nc4)cc(C#N)cc3c2=O)cc1F (centres unmarked) [Example 189, 3-(3,5-difluoro-4-methoxyphenyl)-8-(6-methylpyridin-3-yl)-4-oxo-2-(piperidin-3-yl)-3,4-dihydroquinazoline-6-carbonitrile] | 51 to 150 | 51 to 150
O=c1c2cc([N+](=O)[O-])ccc2nc([C@H]2CCCN2C2CCOCC2)n1-c1ccccc1 [Example 3, (R)-6-nitro-3-phenyl-2-(1-(tetrahydro-2H-pyran-4-yl)pyrrolidin-2-yl) quinazolin-4 (3H)-one] | 501 to 1000 | > 1000
COc1ccc(-n2c([C@@H]3CCCN3)nc3c(C)cc([N+](=O)[O-])cc3c2=O)cc1 [Example 56, (S)-3-(4-methoxyphenyl)-8-methyl-6-nitro-2-(pyrrolidin-2-yl) quinazolin-4 (3H)-one] | 1 to 50 | 51 to 150
COc1ccc(-n2c(C3CCCN3)nc3c(-c4ccc(N(C)C)nc4)cc(C#N)cc3c2=O)cc1F (centres unmarked) [Example 130, 8-(6-(dimethylamino)pyridin-3-yl)-3-(3-fluoro-4-methoxyphenyl)-4-oxo-2-(pyrrolidin-2-yl)-3,4-dihydroquinazoline-6-carbonitrile] | 1 to 50 | 1 to 50
COc1ccc(-n2c(C3C[C@@H]4CCC[C@@H]4N3)nc3c(-c4ccc(C)nc4)cc(C#N)cc3c2=O)cc1F (stereo partly drawn) [Example 140, 3-(3-fluoro-4-methoxyphenyl)-8-(6-methylpyridin-3-yl)-2-((3aS,6aS)-octahydrocyclopenta[b]pyrrol-2-yl)-4-oxo-3,4-dihydroquinazoline-6-carbonitrile] | 1 to 50 | 1 to 50
COc1ccc(-n2c(C3CCCN3)nc3c(-c4ccc(N5CCOCC5)cc4)cc(C#N)cc3c2=O)cc1F (centres unmarked) [Example 153, 3-(3-Fluoro-4-methoxyphenyl)-8-(4-morpholinophenyl)-4-oxo-2-(pyrrolidin-2-yl)-3,4-dihydroquinazoline-6-carbonitrile] | 1 to 50 | 1 to 50
COc1ccc(-n2c([C@H]3CCCN3)nc3c(C(F)(F)F)cc(C#N)cc3c2=O)cc1 [Example 74, (R)-3-(4-methoxyphenyl)-4-oxo-2-(pyrrolidin-2-yl)-8-(trifluoromethyl)-3,4-dihydroquinazoline-6-carbonitrile] | 1 to 50 | 1 to 50
COc1ccc(-n2c([C@H]3CCCN3)nc3ccc([N+](=O)[O-])cc3c2=O)cc1 [Example 9, (R)-3-(4-methoxyphenyl)-6-nitro-2-(pyrrolidin-2-yl) quinazolin-4 (3H)-one] | 1 to 50 | 1 to 50
COc1ccc(-n2c([C@H]3C[C@H](F)CN3)nc3c(-c4ccc(C)nc4)cc(C#N)cc3c2=O)cc1F [Example 112, 3-(3-fluoro-4-methoxyphenyl)-2-((2R,4S)-4-fluoropyrrolidin-2-yl)-8-(6-methylpyridin-3-yl)-4-oxo-3,4-dihydroquinazoline-6-carbonitrile] | 1 to 50 | 51 to 150
CN[C@@H](C)c1nc2ccc([N+](=O)[O-])cc2c(=O)n1-c1ccc(OC)cc1 [Example 206, (S)-3-(4-methoxyphenyl)-2-(1-(methylamino)ethyl)-6-nitroquinazolin-4 (3H)-one] | 51 to 150 | 151 to 500
O=c1c2cc([N+](=O)[O-])ccc2nc([C@H]2CCCN2)n1-c1ccccc1 [Example 2, (R)-6-nitro-3-phenyl-2-(pyrrolidin-2-yl) quinazolin-4 (3H)-one] | 1 to 50 | 51 to 150
COc1c(F)cc(-n2c(C3CCCN3)nc3c(-c4ccc(CO)nc4)cc(C#N)cc3c2=O)cc1F (centres unmarked) [Example 180, 3-(3,5-difluoro-4-methoxyphenyl)-8-(6-(hydroxymethyl)pyridin-3-yl)-4-oxo-2-(pyrrolidin-2-yl)-3,4-dihydroquinazoline-6-carbonitrile] | 1 to 50 | 1 to 50

Source: patent US20220348558A1, “INHIBITORS OF ENCEPHALITIC ALPHAVIRUSES” (priority 2019, published 2022)
